Experimental data taken from publication PMC6768028, “Synthesis, SAR and in vitro therapeutic potentials of thiazolidine-2,4-diones” (Chemistry Central Journal, 2018).
≈ marks a conversion by molar mass, not a printed value.

Key:
[1] = Antioxidant activity: free radical scavenging method by DPPH assay; conditions: for % inhibition (DPPH), 25 μg/ml / % inhibition (DPPH), 50 μg/ml / % inhibition (DPPH), 75 μg/ml / % inhibition (DPPH), 100 μg/ml: 30 min, 517 nm; for IC50 (antioxidant activity, DPPH): calculated via graph of % inhibition
Description: The antioxidant activity of the newly synthesized compounds were evaluated spectrophotometrically using free radical scavenging method by DPPH (2,2-diphenyl-1-picrylhydrazyl) assay. The DPPH is a stable free radical with maximal absorption at 517 nm and is reduced to a corresponding hydrazine when it reacting with hydrogen donors. […] DPPH solution (3 μg/ml) was prepared in methanol and DPPH (in 1:1) solution was used for blank reference. Four dilutions of different concentrations (25, 50, 75 and 100 μg/ml) of each synthesized compound and standard (ascorbic acid) were prepared in the methanol and 1 ml of each concentration was added to 1 ml of DPPH solution. The solution mixture was shaken vigorously and kept in dark place for 30 min at room temperature and absorbance was measured by UV at 517 nm. Percentage inhibition of Free radical DPPH was calculated as follows:1 %Inhibition=ABlank-ASample/ABlank×100 where, ABlank: absorbance of the blank reaction, ASample: absorbance of the test compound.

[2] = test system: Klebsiella pneumonia; assay: Antimicrobial activity, tube dilution method (MIC); type: cell-based; conditions: Klebsiella pneumoniae, 24 h, read-out: Minimum inhibitory concentration, K. pneumonia, tube dilution, 37 ± 1 °C, 24 h
Description: (§1) The in vitro antimicrobial activity of synthesized compounds was done by tube dilution method against Gram-positive bacteria: Staphylococcus aureus, Bacillus subtilis, Gram-negative bacteria: Escherichia coli, Klebsiella pneumonia, Salmonella typhi and fungal: Candida albicans and Aspergillus niger strains using cefadroxil and fluconazole as standard. Dilutions of test and standard compounds were prepared in double strength nutrient broth for bacterial strains and Sabouraud dextrose broth for fungal strains.

[3] = test system: Staphylococcus aureus; assay: Antimicrobial activity, tube dilution method (MIC); type: cell-based; conditions: 24 h, read-out: Minimum inhibitory concentration, S. aureus, tube dilution, 37 ± 1 °C, 24 h
Description: as §1

[4] = test system: Salmonella typhi; assay: Antimicrobial activity, tube dilution method (MIC); type: cell-based; conditions: Salmonella enterica, TYPHI, 24 h, read-out: Minimum inhibitory concentration, S. typhi
Description: as §1

[5] = test system: Escherichia coli; assay: Antimicrobial activity, tube dilution method (MIC); type: cell-based; conditions: 24 h, read-out: Minimum inhibitory concentration, E. coli, tube dilution, 37 ± 1 °C, 24 h
Description: as §1

[6] = test system: Bacillus subtilis; assay: Antimicrobial activity, tube dilution method (MIC); type: cell-based; conditions: 24 h, read-out: Minimum inhibitory concentration, B. subtilis, tube dilution, 37 ± 1 °C, 24 h
Description: as §1

[7] = test system: α-amylase enzyme (diastase); assay: Antidiabetic activity: α-amylase inhibitory activity using diastase, colorimetric method; type: biochemical; conditions: for IC50 (antidiabetic activity, α-amylase): calculated via graph of % inhibition
Description: All the synthesized compounds were evaluated against α-amylase inhibitory activity by using diastase based on colorimetric method. 0.25 g of soluble potato starch was dissolved in 50 ml of 20 mM phosphate buffer by heating for 15 min. 1 mg diastase (amylase enzyme) was mixed in 100 ml of 20 mM phosphate buffer (pH 6.9) to obtain the enzyme solution. Different concentrations of all the synthesized derivatives were prepared by dissolving them in DMSO. […] 1 ml of enzyme solution was mixed with 1 ml of each synthesized derivatives and incubated for 10 min at 25 °C. Then 1 ml of this mixture was mixed with 1 ml of soluble potato starch solution in a tube and incubated for 10 min at 25 °C. Then tubes were closed after adding 1 ml of color reagent and placed into water bath for 15 min at 85 °C. The reaction mixture was removed from water bath after 15 min. After cooling, the reaction mixture was diluted with 9 ml of distilled water and the absorbance was taken at 540 nm in UV spectrophotometer. Blank solution was prepared by replacing the enzyme solution with buffer solution and absorbance was taken. Measurement of control was performed in identical manner by replacing the synthesized derivatives in 1 ml of DMSO.
Percentage inhibition of α-amylase enzyme was calculated by using following formula:1 %Inhibition=ABlank-ASample/ABlank×100

[8] = test system: Aspergillus niger; assay: Antifungal activity, tube dilution method (MIC); type: cell-based; conditions: 168 h, read-out: Minimum inhibitory concentration, A. niger, tube dilution, 25 ± 1 °C, 7 days
Description: as §1

[9] = test system: Candida albicans; assay: Antifungal activity, tube dilution method (MIC); type: cell-based; conditions: 48 h, read-out: Minimum inhibitory concentration, C. albicans, tube dilution, 37 ± 1 °C, 48 h
Description: as §1

CCN(CC)c1ccc(/C=C2/SC(=O)NC2=O)cc1 [Compound 8]
% inhibition (DPPH), 25 μg/ml [1]: 26.93%
% inhibition (DPPH), 50 μg/ml [1]: 33.78%
% inhibition (DPPH), 75 μg/ml [1]: 62.23%
% inhibition (DPPH), 100 μg/ml [1]: 65.78%
IC50 (antioxidant activity, DPPH) [1]: 31.15 µg/mL (≈ 113 µM)
MIC [2]: 4.5 mM (≈ 1240 µg/mL)
MIC [3]: 4.5 mM (≈ 1240 µg/mL)
MIC [4]: 4.5 mM (≈ 1240 µg/mL)
MIC [5]: 5 mM (≈ 1380 µg/mL)
MIC [6]: 4.5 mM (≈ 1240 µg/mL)
% inhibition (α-amylase), 25 μg/ml [7]: 20.79%
% inhibition (α-amylase), 50 μg/ml [7]: 39.54%
% inhibition (α-amylase), 75 μg/ml [7]: 40.89%
% inhibition (α-amylase), 100 μg/ml [7]: 93.17%
IC50 (antidiabetic activity, α-amylase) [7]: 56.89 µg/mL (≈ 206 µM)
melting point: 158 to 160 °C
MIC [8]: 4.5 mM (≈ 1240 µg/mL)
MIC [9]: 4.5 mM (≈ 1240 µg/mL)

COc1cccc(C=C2SC(=O)NC2=O)c1 [Compound 16, 5-(3-Methoxybenzylidene)thiazolidine-2,4-dione]
% inhibition (DPPH), 25 μg/ml [1]: 30.65%
% inhibition (DPPH), 50 μg/ml [1]: 43.62%
% inhibition (DPPH), 75 μg/ml [1]: 79.11%
% inhibition (DPPH), 100 μg/ml [1]: 87.97%
IC50 (antioxidant activity, DPPH) [1]: 39.77 µg/mL (≈ 169 µM)
MIC [2]: 10.6 mM (≈ 2490 µg/mL)
MIC [3]: 5.31 mM (≈ 1250 µg/mL)
MIC [4]: 5.31 mM (≈ 1250 µg/mL)
MIC [5]: 5.31 mM (≈ 1250 µg/mL)
MIC [6]: 5.31 mM (≈ 1250 µg/mL)
% inhibition (α-amylase), 25 μg/ml [7]: 27.52%
% inhibition (α-amylase), 50 μg/ml [7]: 43.73%
% inhibition (α-amylase), 75 μg/ml [7]: 57.27%
% inhibition (α-amylase), 100 μg/ml [7]: 85.23%
IC50 (antidiabetic activity, α-amylase) [7]: 40.92 µg/mL (≈ 174 µM)
melting point: 217 to 220 °C
MIC [8]: 5.31 mM (≈ 1250 µg/mL)
MIC [9]: 5.31 mM (≈ 1250 µg/mL)
